According to patent publication US20240317721A1, “PYRAZOLYL DERIVATIVES AS INHIBITORS OF THE KRAS MUTANT PROTEIN” (NOVARTIS AG, priority 2021, published 2024):

Molecular target: KRasG12C (M1-K169, biotinylated on the N-terminus) (Homo sapiens (Human), UniProt P01116, G12C)
Assay: Covalent competition assay: scintillation proximity assay (SPA) quantifying covalent modification of KRASG12C
Assay type: binding
Settings: competition with radiolabeled covalent probe (Compound B/Compound A), 2 hours incubation, 10 nM KRasG12C
Method: Cells were harvested by centrifugation and frozen at −80° C. until further processing. […] The cells were lysed by 4 passages through an Avestin Emulsiflex at about 20000 psi and insoluble debris removed by centrifugation and filtered through a 0.45 µm Durapore membrane (Millipore). […] Eluted protein fractions were analyzed by Novex NuPage 4-12% PAGE. […] The protein in the flow through was subjected to a final polishing step on a HiLoad 16/60 Superdex 200 prep grade size-exclusion column pre-equilibrated with SEC-buffer (20 mM HEPES pH 7.4, 150 mM NaCl, 5 mM MgCl2, 1 µM GDP). Positive fractions were determined by PAGE (Novex NuPage 4-12% BisTris) analysis.
A scintillation proximity assay (SPA) was used to determine the potency of the compounds.
This assay measures the ability of the test compound to compete with the radiolabeled covalent probe for binding to and covalently modify KRASG12C.
(see above for synthesis of Compound A and Compound B). A serial dilution of the compounds to be tested is mixed with a fixed concentration of the radiolabeled covalent probe before incubation with KRASG12C:GDP as described below. KRASG12C can either be bound by the radiolabeled covalent probe (Compound B), resulting in light being emitted from the beads, or bound by covalent test compound preventing signal generation.
A 1/20 isotopic dilution of labeled (Compound B) and non-labeled covalent (Compound A) probe was prepared and added to all wells on the plate. The reaction was started by addition of KRasG12C (M1-K169, biotinylated on the N-terminus) to the compounds and incubated for 2 hours with continuous agitation allowing for full modification of KRasG12C with probe or test compounds. Final concentrations in an assay volume of 40 μL were 10 nM KRasG12C, 25 nM radio-ligand and 475 nM unlabelled ligand. The assay buffer contained 20 mM Tris-HCl pH 7.5 (Invitrogen), 150 mM NaCl (Sigma Aldrich), 0.1 mM MgCl2 (Sigma Aldrich), and 0.01% Tween-20 (Sigma Aldrich). Following addition of 50 μL of a 400 μg/mL suspension of streptavidin-coated YSi beads (Perkin Elmer), plates were incubated for a further 30 min with continuous agitation before reading the plates on a scintillation counter (Topcount NXT 384 (Packard).
Evaluation was carried out using assay data analysis software (such as the standard Novartis in-house Helios software application, Novartis Institutes for BioMedical Research, unpublished) using the methods described in Formenko et al., Robust Regression for high-throughput screening, Computer Methods and Programs in Biomedicine, 2006, 82, 31-37. Following normalization of activity values for the wells to % inhibition (% inhibition=[(high control−sample)/(high control−low control)]×100), IC50 fitting was carried out from the duplicate determinations present on each plate according to Formenko et al., 2006.
Evaluation can also be carried out using commercially available software which is designed to derive IC50 values using 4-parameter fits (e.g. GraphPad Prism, XL fit).

| Compound | IC50 |
| --- | --- |
| C=CC(=O)N1CC2(CC(n3nc(N4CCN(C(=O)C5CC5)CC4(C)C)c(-c4c(Cl)c(C)cc5[nH]ncc45)c3C)C2)C1 (single isomer, unassigned) [Example 127a, 1-(6-(4-(5-chloro-6-methyl-1H-indazol-4-yl)-3-(4-(cyclopropanecarbonyl)-2,2-dimethylpiperazin-1-yl)-5-methyl-1H-pyrazol-1-yl)-2-azaspiro[3.3]heptan-2-yl)prop-2-en-1-one] | 25200 nM |
| C=CC(=O)N1CC2(CC(n3nc(N4CC[C@@H](CN5CCN(C6COC6)C[C@@H]5COC)CC4(C)C)c(-c4c(Cl)c(Cl)cc5[nH]ncc45)c3C)C2)C1 (single isomer, unassigned) [Example 320b] | < 5 nM |
| C=CC(=O)N1CC2(CC(n3nc(N4CCN(C(C)=O)CC4)c(-c4c(Cl)ccc5[nH]ncc45)c3C)C2)C1 (single isomer, unassigned) [Example 36b, 1-(6-(3-(4-acetylpiperazin-1-yl)-4-(5-chloro-1H-indazol-4-yl)-5-methyl-1H-pyrazol-1-yl)-2-azaspiro[3.3]heptan-2-yl)prop-2-en-1-one] | 2400 nM |
| C=CC(=O)N1CC2(CC(n3nc(N4CCN(C[C@@H]5COCCO5)C[C@]4(C)CC)c(-c4c(Cl)c(C)cc5c4cnn5C)c3C)C2)C1 (single isomer, unassigned) [Example 109b] | > 5000 nM |
| C=CC(=O)N1CC2(CC(n3nc(N4CCC(C(=O)N5CCN(C)CC5)CC4(C)C)c(-c4c(Cl)c(Cl)cc5[nH]ncc45)c3C)C2)C1 (single isomer, unassigned) [Example 211b, 1-(6-(4-(5,6-dichloro-1H-indazol-4-yl)-3-(2,2-dimethyl-4-(4-methylpiperazine-1-carbonyl)piperidin-1-yl)-5-methyl-1H-pyrazol-1-yl)-2-azaspiro[3.3]heptan-2-yl)prop-2-en-1-one] | 8 nM |
| C=CC(=O)N1CC2(CC(n3nc(N4CCN(C5CCOCC5)C[C@@]4(C)C(F)F)c(-c4c(Cl)c(Cl)cc5[nH]ncc45)c3C)C2)C1 (single isomer, unassigned) [Example 106a] | > 5000 nM |
| C=CC(=O)N1CC2(CC(n3nc(N4CC[C@@H](CN5CCN(S(C)(=O)=O)CC5)CC4(C)C)c(-c4c(Cl)c(Cl)cc5[nH]ncc45)c3C)C2)C1 (single isomer, unassigned) [Example 298b] | 27 nM |
| C=CC(=O)N1CC2(CC(n3nc(N4CCN(c5nccn5C)C[C@]4(C)CC)c(-c4c(Cl)c(C)cc5[nH]ncc45)c3C)C2)C1 (single isomer, unassigned) [Example 194b] | 1300 nM |
| C=CC(=O)N1CC2(CC(n3nc(N4CCN(CC(C)(C)O)C[C@]4(C)CC)c(-c4c(Cl)c(C)cc5[nH]ncc45)c3C)C2)C1 (single isomer, unassigned) [Example 161b] | 8 nM |

The remaining lines, values ahead:

| IC50 | Compound |
| --- | --- |
| 26 nM | C=CC(=O)N1CC2(CC(n3nc(N4CCN(CC(C)(C)O)CC45CCCC5)c(-c4c(Cl)c(C)cc5[nH]ncc45)c3C)C2)C1 (single isomer, unassigned) [Example 165b, 1-(6-(4-(5-chloro-6-methyl-1H-indazol-4-yl)-3-(9-(2-hydroxy-2-methylpropyl)-6,9-diazaspiro[4.5]decan-6-yl)-5-methyl-1H-pyrazol-1-yl)-2-azaspiro[3.3]heptan-2-yl)prop-2-en-1-one] |
| > 5000 nM | C=CC(=O)N1CC2(CC(n3nc(N4CCN(C5COC5)CC45CCCC5)c(-c4c(Cl)c(C)cc5[nH]ncc45)c3C)C2)C1 (single isomer, unassigned) [Example 144a, 1-(6-(4-(5-chloro-6-methyl-1H-indazol-4-yl)-5-methyl-3-(9-(oxetan-3-yl)-6,9-diazaspiro[4.5]decan-6-yl)-1H-pyrazol-1-yl)-2-azaspiro[3.3]heptan-2-yl)prop-2-en-1-one] |
| 34 nM | C=CC(=O)N1CC2(CC(n3nc(N4CCN(C)CC45CCC5)c(-c4c(Cl)c(C)cc5[nH]ncc45)c3C)C2)C1 (single isomer, unassigned) [Example 55b, 1-(6-(4-(5-chloro-6-methyl-1H-indazol-4-yl)-5-methyl-3-(8-methyl-5,8-diazaspiro[3.5]nonan-5-yl)-1H-pyrazol-1-yl)-2-azaspiro[3.3]heptan-2-yl)prop-2-en-1-one] |
| > 5000 nM | C=CC(=O)N1CC2(CC(n3nc(N4CCN(C(C)(C)C(=O)OC)CC45CCC5)c(-c4c(Cl)c(C)cc5[nH]ncc45)c3C)C2)C1 (single isomer, unassigned) [Example 180a, methyl 2-(5-(1-(2-acryloyl-2-azaspiro[3.3]heptan-6-yl)-4-(5-chloro-6-methyl-1H-indazol-4-yl)-5-methyl-1H-pyrazol-3-yl)-5,8-diazaspiro[3.5]nonan-8-yl)-2-methylpropanoate] |
| 13 nM | C=CC(=O)N1CC2(CC(n3nc(N4CCN(C5CCOCC5)C[C@]4(C)CCOC)c(-c4c(Cl)c(C)cc5[nH]ncc45)c3C)C2)C1 (single isomer, unassigned) [Example 87a] |
| 273 nM | C=CC(=O)N1CC2(CC(n3nc(N4CCC(N(C)C5COC5)CC4(C)C)c(-c4c(Cl)c(Cl)cc5[nH]ncc45)c3C)C2)C1 (single isomer, unassigned) [Example 50a, 1-(6-(4-(5,6-dichloro-1H-indazol-4-yl)-3-(2,2-dimethyl-4-(methyl(oxetan-3-yl)amino)piperidin-1-yl)-5-methyl-1H-pyrazol-1-yl)-2-azaspiro[3.3]heptan-2-yl)prop-2-en-1-one] |
| 25 nM | C=CC(=O)N1CC2(CC(n3nc(N4CCN(CCOC)CC45CCC5)c(-c4c(Cl)c(C)cc5[nH]ncc45)c3C)C2)C1 (single isomer, unassigned) [Example 71b, 1-(6-(4-(5-chloro-6-methyl-1H-indazol-4-yl)-3-(8-(2-methoxyethyl)-5,8-diazaspiro[3.5]nonan-5-yl)-5-methyl-1H-pyrazol-1-yl)-2-azaspiro[3.3]heptan-2-yl)prop-2-en-1-one] |
| 365 nM | C=CC(=O)N1CC2(CC(n3nc(N4CCC(n5ccnc5)CC4(C)C)c(-c4c(Cl)c(C)cc5[nH]ncc45)c3C)C2)C1 (single isomer, unassigned) [Example 45a, 1-(6-(3-(4-(1H-imidazol-1-yl)-2,2-dimethylpiperidin-1-yl)-4-(5-chloro-6-methyl-1H-indazol-4-yl)-5-methyl-1H-pyrazol-1-yl)-2-azaspiro[3.3]heptan-2-yl)prop-2-en-1-one] |
| 246 nM | C=CC(=O)N1CC2(CC(n3nc(N4CCC(N(C)C5COC5)CC45CCC5)c(-c4c(Cl)c(C)cc5[nH]nc(N)c45)c3C)C2)C1 (single isomer, unassigned) [Example 115b, 1-(6-(4-(3-amino-5-chloro-6-methyl-1H-indazol-4-yl)-5-methyl-3-(8-(methyl(oxetan-3-yl)amino)-5-azaspiro[3.5]nonan-5-yl)-1H-pyrazol-1-yl)-2-azaspiro[3.3]heptan-2-yl)prop-2-en-1-one] |
| 9 nM | C=CC(=O)N1CC2(CC(n3nc(N4CCN(CC(C)(C)O)CC45CCC5)c(-c4c(Cl)c(C)cc5[nH]nc(N)c45)c3C)C2)C1 (single isomer, unassigned) [Example 117a, 1-(6-(4-(3-amino-5-chloro-6-methyl-1H-indazol-4-yl)-3-(8-(2-hydroxy-2-methylpropyl)-5,8-diazaspiro[3.5]nonan-5-yl)-5-methyl-1H-pyrazol-1-yl)-2-azaspiro[3.3]heptan-2-yl)prop-2-en-1-one] |
| 1400 nM | C=CC(=O)N1CC2(CC(n3nc(N4CC[C@@H](CN5CCOCC5)CC4(C)C)c(-c4c(Cl)c(C)cc5[nH]nc(N)c45)c3C)C2)C1 (single isomer, unassigned) [Example 242b] |
